One block for each compound: values may come before it.
Target: T1, fatty acyl CoA:cholesterol acyl transferase (ACAT) (Rattus norvegicus, UniProt O70536)
T1 construct: The supernatant, containing the microsomal fraction, served as the source of the cholesterol-esterifying enzyme; from tissue; host or cells: rat adrenals (supernatant of homogenate, 1,000 x g, containing the microsomal fraction)
T1 sequence (O70536 1-545): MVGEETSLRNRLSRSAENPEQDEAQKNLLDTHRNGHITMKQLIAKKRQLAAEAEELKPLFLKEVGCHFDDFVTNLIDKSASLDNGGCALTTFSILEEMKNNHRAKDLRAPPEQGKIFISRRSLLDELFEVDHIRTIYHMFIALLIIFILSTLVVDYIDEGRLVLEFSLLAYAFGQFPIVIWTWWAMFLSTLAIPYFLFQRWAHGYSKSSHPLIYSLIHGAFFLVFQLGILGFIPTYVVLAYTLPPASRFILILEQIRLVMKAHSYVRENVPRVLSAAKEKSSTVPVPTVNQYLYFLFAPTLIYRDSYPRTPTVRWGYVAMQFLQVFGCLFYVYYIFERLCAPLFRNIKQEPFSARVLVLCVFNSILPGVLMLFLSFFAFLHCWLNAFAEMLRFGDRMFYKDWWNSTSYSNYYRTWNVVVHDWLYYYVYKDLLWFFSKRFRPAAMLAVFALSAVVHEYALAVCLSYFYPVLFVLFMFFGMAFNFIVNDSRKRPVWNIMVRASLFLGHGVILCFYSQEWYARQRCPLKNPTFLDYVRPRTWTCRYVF
Assay: Inhibition of enzymatic esterification of cholesterol (ACAT), rat adrenal microsomal supernatant
Type: biochemical
Settings: final concentration of the test compound 5.2 μg./ml., 14C-oleoyl CoA, 37° C., read-out: % INHIBITION (percent inhibition of the ACAT enzyme compared to control values)
Description: The compounds of the present invention were tested for their ability to inhibit the enzymatic esterification of cholesterol according to the following procedure:
Rat adrenals were homogenized in 0.2M monobasic potassium phosphate buffer, pH 7.4, and centrifuged at 1,000 times gravity for 15 minutes at 5° C. The supernatant, containing the microsomal fraction, served as the source of the cholesterol-esterifying enzyme, fatty acyl CoA:cholesterol acyl transferase (ACAT). A mixture comprising 50 parts of adrenal supernatant, 10 parts of albumin (BSA) (50 mg./ml.), 20 parts of oleoyl CoA (^14 C-0.4 μCi), 3 parts of test compound, and 500 parts of buffer was pre-incubated at 37° C. for 10 minutes. After treatment with 20 parts of oleoyl CoA (^14 C-0.4 μCi), the mixture was incubated at 37° C. for 10 minutes. A control mixture, omitting the test compound, was prepared and treated in the same manner. The lipids from the incubation mixture were extracted into an organic solvent and separated by thin-layer chromatography. The cholesterol ester fraction was counted in a scintillation counter. This procedure is a modification of that described by Hashimoto, et al., Life Scie., 12 (Part II), 1-12 (1973).
The results of this test on representative compounds of this invention appear in Table I. The final concentration of the test compound was 5.2 μg./ml., and effectiveness of the compound is expressed as percent inhibition of the ACAT enzyme compared to control values.

inhibition at 5.2 µg/mL: 92%
SMILES: CCCCNC(=O)CC(c1ccc(Cl)cc1)c1ccc(Cl)cc1 [N--(n-Butyl)-3,3-bis(p-chlorophenyl)propionamide]

inhibition at 5.2 µg/mL: 94%
SMILES: CCCCN(CCCC)C(=O)CC(c1ccc(C)cc1)c1ccc(C)cc1 [N,N--Di-(n-butyl)-3,3-bis(p-tolyl)propionamide]

inhibition at 5.2 µg/mL: 68%
SMILES: CN(C)C(=O)CC(c1ccc(Cl)cc1)c1ccc(Cl)cc1 [N,N--Dimethyl-3,3-bis(p-chlorophenyl)propionamide]

inhibition at 5.2 µg/mL: 97%
SMILES: O=C(CC(c1ccc(Cl)cc1)c1ccc(Cl)cc1)NC12CC3CC(CC(C3)C1)C2 [N--(1-Adamantyl)-3,3-bis(p-chlorophenyl)propionamide]

inhibition at 5.2 µg/mL: 89%
SMILES: COc1ccc(C(CC(=O)NC23CC4CC(CC(C4)C2)C3)c2ccc(OC)cc2)cc1 [N--(1-Adamantyl)-3,3-bis(p-methoxyphenyl)propionamide]

inhibition at 5.2 µg/mL: 31%
SMILES: NC(=O)CC(c1ccc(Cl)cc1)c1ccc(Cl)cc1 [3,3-Bis(p-chlorophenyl)propionamide]

inhibition at 5.2 µg/mL: 68%
SMILES: Cc1ccc(C(CC(=O)N(Cc2ccccc2)Cc2ccccc2)c2ccc(C)cc2)cc1 [N,N--Dibenzyl-3,3-bis(p-tolyl)propionamide]

inhibition at 5.2 µg/mL: 76%
SMILES: Cc1ccc(C(CC(=O)NC23CC4CC(CC(C4)C2)C3)c2ccc(C)cc2)cc1 [N--(1-Adamantyl)-3,3-bis(p-tolyl)propionamide]

Second part, the compound before the results:

SMILES: COc1ccc(C(CC(=O)N(Cc2ccccc2)Cc2ccccc2)c2ccc(OC)cc2)cc1 [N,N--Dibenzyl-3,3-bis(p-methoxyphenyl)propionamide]
inhibition at 5.2 µg/mL: 87%

SMILES: COc1ccc(C(CC(=O)NCCc2ccc(OC)c(OC)c2)c2ccc(OC)cc2)cc1 [N--[2-(3,4-Dimethoxyphenyl)ethyl]-3,3-bis(p-methoxyphenyl)propionamide]
inhibition at 5.2 µg/mL: 78%

SMILES: CCCCN(CCCC)C(=O)CC(c1ccc(Cl)cc1)c1ccc(Cl)cc1 [N,N--Di-(n-butyl)-3,3-bis(p-chlorophenyl)propionamide]
inhibition at 5.2 µg/mL: 48%

SMILES: O=C(CC(c1ccc(Cl)cc1)c1ccc(Cl)cc1)N(Cc1ccccc1)Cc1ccccc1 [N,N--Dibenzyl-3,3-bis(p-chlorophenyl)propionamide]
inhibition at 5.2 µg/mL: 93%

SMILES: CCOC(=O)CNC(=O)C=C(c1ccc(Cl)cc1)c1ccc(Cl)cc1 [Ethyl N-[3,3-bis(p-chlorophenyl)acryloyl]glycinate]
inhibition at 5.2 µg/mL: 85%

SMILES: CCCCN(CCCC)C(=O)CC(c1ccc(OC)cc1)c1ccc(OC)cc1 [N,N--Di-(n-butyl)-3,3-bis(p-methoxyphenyl)propionamide]
inhibition at 5.2 µg/mL: 95%

SMILES: CCCCN(Cc1ccccc1)C(=O)CC(c1ccc(Cl)cc1)c1ccc(Cl)cc1 [N--Benzyl-N--(n-butyl)-3,3-bis(p-chlorophenyl)propionamide]
inhibition at 5.2 µg/mL: 45%

SMILES: O=C(CC(c1ccc(Cl)cc1)c1ccc(Cl)cc1)NCc1ccccc1 [N--Benzyl-3,3-bis(p-chlorophenyl)propionamide]
inhibition at 5.2 µg/mL: 35%

From patent US4603145A, “Antiatherosclerotic diphenyl alkanamides” (American Cyanamid Company, priority 1983, dated 1986)
